# Reference: patent US11357750B2, “Cysteamine prodrugs” (Children's Hospital Medical Center, priority 2017, dated 2022)
# Counter-ions that a name gives are not always drawn.
# Assays:
# [1] = Pharmacokinetic (PK) study of cysteamine in plasma after oral dosing in rats, blood sampling from portal vein and heart (HPV protocol); format: in vivo, rat
# Method: Absorption and hepatic extraction information after oral administration and blood sampling from portal vein and heart (HPV protocol) were evaluated.
# Blood samples were collected at intervals up to 24 h after dose administration (n=3 animals per each time point).
# Sample Collection and Handling: After PO administration, blood samples were collected under deep Isofluorane anesthesia from portal vein and heart of each rat (3 rats per each time point). Blood was collected into potassium EDTA tubes at each of the following time points post-dose (actual times will be recorded): 0.25, 0.5, 1, 2, 4, 6, 8, 12 and 24 hours after dosing. All blood samples were thoroughly, but gently mixed following collection, placed on ice and centrifuged as soon as possible (2000 g for 5 min at 0° C.) to prepare plasma. Duplicate 50 μL aliquots of plasma samples were transferred in micronic tubes.
# Plasma Sample Preparation: • 1. Calibration standards (CS) and quality control (QC) plasma samples were prepared by adding 5 μL WS to 45 μL of fresh plasma into micronic tubes using Tecan. • 2. Pseudo QC were prepared by adding 5 μL WSQC to 45 μL of water into micronic tubes using Tecan. • 3. CS, QC, pseudo QC and blank were diluted with 200 μL of KCl solution (1.15%). • 4. Plasma collection was performed by laboratory automation system (LAS). 50 μL whole plasma was transferred into micronic tubes containing 200 μL of KCl solution (1.15%). • 5. All samples were added […] with 20 μL of glutathione ethyl ester as internal standard (0.01 mg/mL in water) and 100 μL of Ellman's reagent (10 mM in water). • 6. […]
# Plasma sample analysis: Samples were assayed for cysteamine using a method based on protein precipitation followed by HPLC/MS-MS analysis. Study samples were analyzed in discrete batches together with calibration standards (CS), used to construct calibration curves and blank samples (including also double blanks), used to assess specificity. […] The presence of prodrug and its products were monitored but not quantified in both portal and systemic plasma. […]
# [2] = system: intracellular cystine (circulating white blood cells); conditions: taken regularly; measured in circulating white blood cells; cited from earlier work
# [3] = cited from earlier work
compound,measurement,setting,value
"NCCS [Cysteamine Hydrochloride, cysteamine hydrochloride]",Fa % (fraction absorbed),"[1]; male, CD, rat, in vivo, po",16.1%
"NCCS [cysteamine, 2-aminoethane-1-thiol]",Depletion of intracellular cystine,[2],up to 90%
same,Duration of activity (short half-life),[3]; in vivo,5 to 6 h
same,Estimated bioavailability,"[3]; oral administration, extensive first pass metabolism",10-30%
"Cl.NCCS.OCC(O)CO [Glycerol Cysteamine Hydrochloride, glycerol cysteamine hydrochloride]",Release of cysteamine hydrochloride from the glycerol prodrug moiety (conclusion),"[1]; rats PO, gastrointestinal (GI) tract",fully separated from the glycerol prodrug moiety in the gastrointestinal (GI) tract
same,Cysteamine levels in portal plasma after prodrug administration,"[1]; rats PO, versus cysteamine hydrochloride administration",comparable to those observed after cysteamine hydrochloride administration
